The text below walks through data of patent US20250171420A1 (Monte Rosa Therapeutics, Inc., priority 2022, published 2025).

The nature of data set [1]: Oral pharmacokinetics in male BALB/c mice. The note with it: mouse, PO 10 mg/kg, plasma, mean ± SD. The class given is in vivo. The method, then: Male BALB/c mice were administered a discrete, oral (PO) dose of Compound 288, Compound 335, Compound 102, or Compound 303 at 10 mg/kg; all mice were fasted except for mice that were dosed with Compound 288. Male BALB/c mice were fasted overnight and administered a cassette dose, PO dose of Compound 303 and other compounds at 5 mg/kg per compound.
Blood samples were collected serially from three animals/time-point following PO administration of the test compounds to the mice and placed in tubes containing K2EDTA. The blood samples were centrifuged, and the aliquots of the resulting plasma stored frozen at −60 to −90° C.
The plasma samples were analyzed by LC-MS/MS to determine concentrations of the test compounds. The in-life portion of the study and the bioanalysis of plasma samples was conducted at Wuxi (China).
The pharmacokinetic parameters for the tested compounds were calculated by non-compartmental analysis using Phoenix WinNonlin software.

The test system of data set [2] is LS174T cell line. Description: Growth inhibition, CyQUANT Direct Cell Proliferation Assay, LS174T. The note with it: Homo sapiens, 120 to 168 hours, read-out: LS174T GI50. The class given is cell-based. In short, it runs like this:
(§1)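 Cells seeded 300 to 1,800 per well, day-0 CyQUANT Direct read after overnight attachment; 9-point 3-fold dilutions from 30 μM top concentration, 120 to 168 h exposure, 0.3% DMSO control. Fluorescence Ex/Em 480/520 nm; growth inhibition normalised to day-0 and untreated day-N signals, GI50 at 50% of untreated control.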

Data set [3] deals with CRBN/DDB1 (Homo sapiens, UniProt Q96SW2). Description: HTRF binding assay (displacement of Cy5-thalidomide probe from CRBN/DDB1). In short, it runs like this:
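HTRF displacement of Cy5-thalidomide (100 nM) from His-tagged CRBN/DDB1 (2.5 nM) with anti-His Tb cryptate in 20 mM HEPES, 20 mM NaCl, 0.2 mM TCEP, 0.2 mM EDTA, 0.005% Tween20. 10-point 1:3 series, 30 min ambient. 665/620 nm ratio fitted 4-parameter for IC50; Ki by Cheng-Prusoff from geometric-mean IC50.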
(In general: In TR-FRET formats the signal depends on donor and acceptor labels being close together.)

In data set [4] the target is T1, CK1α (Homo sapiens, UniProt P48729).
T1 construct: HEK293 clonal lines with CRISPR KI HiBiT tag on CSNK1A1
Description: CK1α NanoBit Assay (HiBiT-tagged CSNK1A1, HEK293 clonal lines). The class given is cell-based. The note with it: HEK293 HiBiT-CSNK1A1/LgBiT cells, 24 h incubation. In short, it runs like this: (§2)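 HEK293 clones carrying a CRISPR knock-in HiBiT tag on CSNK1A1 and stably expressing LgBiT are treated with compound for 24 hours at 37° C, 5% CO2, then read by luminescence. Response is normalized as 100*(S−N)/(P−N) against plate negative and positive controls, and DC50 values are derived.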
On the technique in general: With HiBiT, luminescence reflects the tagged protein that the partner subunit can reach.

For data set [5], the system named is GP2D cell line. Description: Growth inhibition, CyQUANT Direct Cell Proliferation Assay, GP2D. The format is cell-based. To be noted: GP2D, 120 to 168 hours; read-out: GP2D GI50. In short, it runs like this: as §1
In data set [6] the test system is SKCO1 cell line. Description: Growth inhibition, CyQUANT Direct Cell Proliferation Assay, SKCO1. The format is cell-based. The note with it: Homo sapiens, SK-CO-1; SKCO1, 120 to 168 hours; read-out: SKCO1 GI50. In short, it runs like this: as §1
Data set [7] deals with CW2 cell line. Description: Growth inhibition, CyQUANT Direct Cell Proliferation Assay, CW2. The format is cell-based. To be noted: Homo sapiens, CW-2; CW2, 120 to 168 hours; read-out: CW2 GI50. Summed up:
as §1

Data set [8] has as its system LS180 cell line. Description: Growth inhibition, CyQUANT Direct Cell Proliferation Assay, LS180. The class given is cell-based. To be noted: Homo sapiens; LS180, 120 to 168 hours; read-out: LS180 GI50. Summed up: as §1
For data set [9], the target named is T2, CK1α (Homo sapiens, UniProt P48729+Q96SW2).
T2 construct: HEK293 clonal lines with CRISPR KI HiBiT tag on CSNK1A1
Description: CK1α NanoBit Assay (HiBiT-tagged CSNK1A1, HEK293 clonal lines). The note with it: read-out: CK1α DC50 (μM) 24 h; HEK293 HiBiT-CSNK1A1/LgBiT cells, 24 h incubation. The class given is cell-based. Summed up: as §2

Where two headings read alike, the source gives them in different places.

Sequence of CRBN/DDB1 (Q96SW2 whole entry, species assumed): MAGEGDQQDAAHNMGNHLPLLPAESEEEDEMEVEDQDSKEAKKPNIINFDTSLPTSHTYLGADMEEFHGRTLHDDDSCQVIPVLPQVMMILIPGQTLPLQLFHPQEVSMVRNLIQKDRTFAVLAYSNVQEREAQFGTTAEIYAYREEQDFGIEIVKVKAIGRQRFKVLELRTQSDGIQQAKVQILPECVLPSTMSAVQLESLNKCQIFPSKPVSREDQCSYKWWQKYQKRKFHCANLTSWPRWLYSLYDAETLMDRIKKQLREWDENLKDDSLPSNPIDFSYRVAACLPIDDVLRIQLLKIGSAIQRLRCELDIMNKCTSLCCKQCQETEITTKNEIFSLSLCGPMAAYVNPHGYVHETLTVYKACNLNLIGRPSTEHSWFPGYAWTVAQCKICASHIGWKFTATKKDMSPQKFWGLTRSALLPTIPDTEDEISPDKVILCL
Sequence of CRBN/DDB1 (Q16531 whole entry partner, species assumed): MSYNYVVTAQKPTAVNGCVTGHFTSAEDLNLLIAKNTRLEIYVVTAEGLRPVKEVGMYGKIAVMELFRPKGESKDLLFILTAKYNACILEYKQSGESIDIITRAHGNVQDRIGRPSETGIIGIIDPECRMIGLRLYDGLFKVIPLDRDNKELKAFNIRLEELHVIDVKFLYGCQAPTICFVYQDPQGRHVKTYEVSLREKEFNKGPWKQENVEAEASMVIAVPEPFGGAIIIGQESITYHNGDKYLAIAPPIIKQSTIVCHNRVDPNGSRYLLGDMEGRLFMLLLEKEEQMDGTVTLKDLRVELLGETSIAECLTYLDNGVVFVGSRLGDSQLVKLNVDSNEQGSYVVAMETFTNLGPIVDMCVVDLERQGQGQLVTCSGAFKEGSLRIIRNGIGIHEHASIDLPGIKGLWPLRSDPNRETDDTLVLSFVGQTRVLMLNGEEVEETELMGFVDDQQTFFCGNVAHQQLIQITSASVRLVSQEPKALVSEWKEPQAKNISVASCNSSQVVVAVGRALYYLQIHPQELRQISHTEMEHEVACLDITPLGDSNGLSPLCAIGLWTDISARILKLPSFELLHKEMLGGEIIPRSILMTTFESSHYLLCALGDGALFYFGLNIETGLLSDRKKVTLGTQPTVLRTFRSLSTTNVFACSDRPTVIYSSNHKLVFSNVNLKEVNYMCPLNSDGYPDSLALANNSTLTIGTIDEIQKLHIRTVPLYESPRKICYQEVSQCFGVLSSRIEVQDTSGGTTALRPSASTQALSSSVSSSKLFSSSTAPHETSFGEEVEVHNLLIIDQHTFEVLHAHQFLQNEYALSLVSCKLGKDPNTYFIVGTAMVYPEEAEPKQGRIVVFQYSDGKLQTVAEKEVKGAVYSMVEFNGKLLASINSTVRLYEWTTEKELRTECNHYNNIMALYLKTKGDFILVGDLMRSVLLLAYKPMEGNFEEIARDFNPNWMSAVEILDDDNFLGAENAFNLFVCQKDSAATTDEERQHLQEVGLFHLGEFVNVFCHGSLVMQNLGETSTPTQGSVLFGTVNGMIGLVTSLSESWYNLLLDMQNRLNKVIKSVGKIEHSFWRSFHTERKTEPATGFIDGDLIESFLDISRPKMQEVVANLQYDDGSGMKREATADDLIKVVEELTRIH
T2 sequence (P48729 whole entry): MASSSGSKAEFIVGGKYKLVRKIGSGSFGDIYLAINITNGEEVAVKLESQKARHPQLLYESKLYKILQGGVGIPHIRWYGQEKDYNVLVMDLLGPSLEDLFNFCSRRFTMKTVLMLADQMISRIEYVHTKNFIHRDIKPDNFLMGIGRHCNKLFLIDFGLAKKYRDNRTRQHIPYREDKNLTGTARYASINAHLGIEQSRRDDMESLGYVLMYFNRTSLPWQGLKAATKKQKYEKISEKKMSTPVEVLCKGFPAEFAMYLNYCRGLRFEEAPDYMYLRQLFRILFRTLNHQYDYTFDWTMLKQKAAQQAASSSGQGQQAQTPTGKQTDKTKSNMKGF
T2 sequence (Q96SW2 whole entry): as the sequence (Q96SW2 whole entry, species assumed) above
T2 sequence (Q16531 2-1140 partner limits assumed): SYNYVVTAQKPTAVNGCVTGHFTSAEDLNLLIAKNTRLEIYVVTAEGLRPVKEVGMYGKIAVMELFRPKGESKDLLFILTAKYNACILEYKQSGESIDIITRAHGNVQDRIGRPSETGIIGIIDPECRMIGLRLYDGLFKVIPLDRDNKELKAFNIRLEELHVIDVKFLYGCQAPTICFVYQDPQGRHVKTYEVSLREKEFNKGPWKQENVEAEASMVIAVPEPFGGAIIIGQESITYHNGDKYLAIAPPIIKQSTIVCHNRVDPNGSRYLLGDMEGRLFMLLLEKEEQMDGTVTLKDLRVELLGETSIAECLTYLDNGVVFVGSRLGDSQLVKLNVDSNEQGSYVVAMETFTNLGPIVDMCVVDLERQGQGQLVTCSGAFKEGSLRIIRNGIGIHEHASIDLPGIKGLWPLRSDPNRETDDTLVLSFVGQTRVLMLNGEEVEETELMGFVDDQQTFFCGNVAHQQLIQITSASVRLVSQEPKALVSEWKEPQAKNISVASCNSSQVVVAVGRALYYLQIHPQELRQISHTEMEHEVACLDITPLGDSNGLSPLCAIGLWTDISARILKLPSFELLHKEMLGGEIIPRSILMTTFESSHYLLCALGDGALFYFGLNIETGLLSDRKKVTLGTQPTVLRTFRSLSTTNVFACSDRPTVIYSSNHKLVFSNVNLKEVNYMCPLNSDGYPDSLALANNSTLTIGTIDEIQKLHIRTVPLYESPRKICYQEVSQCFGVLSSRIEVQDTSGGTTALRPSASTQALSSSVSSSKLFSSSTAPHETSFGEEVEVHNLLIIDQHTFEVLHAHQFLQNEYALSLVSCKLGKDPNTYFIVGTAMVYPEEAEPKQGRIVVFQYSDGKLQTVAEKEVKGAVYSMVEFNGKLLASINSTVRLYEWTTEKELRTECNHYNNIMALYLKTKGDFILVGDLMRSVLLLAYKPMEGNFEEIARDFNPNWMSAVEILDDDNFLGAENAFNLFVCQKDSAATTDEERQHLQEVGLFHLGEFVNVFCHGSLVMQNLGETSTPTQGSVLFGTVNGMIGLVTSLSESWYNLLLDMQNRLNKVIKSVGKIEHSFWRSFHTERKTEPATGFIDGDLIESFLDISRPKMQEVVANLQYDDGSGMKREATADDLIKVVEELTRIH
T1 sequence (P48729 whole entry): as the sequence (P48729 whole entry) above
T1 sequence (Q96SW2 whole entry, further chain): as the sequence (Q96SW2 whole entry, species assumed) above
T1 sequence (Q16531 2-1140 partner limits assumed): as the sequence (Q16531 2-1140 partner limits assumed) above

By AUC is commonly meant the area under the concentration-time curve, a measure of exposure. A higher AUC goes with more exposure. For orientation: AUC(0-t) means the area under the concentration-time curve up to a stated or last time point. The low end stands for less exposure, the high end for more exposure. As usually defined, the Cmax is the maximum level reached in the sampled fluid or tissue. The Tmax is the time at which the peak concentration occurs. By half-life is commonly meant how long it takes for the measured level to halve. The term GI50 denotes the concentration giving 50% growth inhibition. On to `COC[C@@H]1Cc2ccccc2N1C(=O)Nc1ccc2c(c1)CN(C1CCC(=O)NC1=O)C2=O` (stereo partly drawn) [Compound 288, (2S)—N-(2-(2,6-dioxopiperidin-3-yl)-1-oxoisoindolin-5-yl)-2-(methoxymethyl)indoline-1-carboxamide], for which, in data set [1], the area under the curve (AUC) is 29700 ± 2450 ng·h/mL, the AUC(0-t) came out at 29600 ± 2460 ng·h/mL, the Cmax was found to be 6870 ± 761 ng/mL and the time of peak concentration (Tmax) came to 0.83 ± 0.29 h. The compound further had a half-life in data set [1] of 2.71 ± 0.49 h. Besides, in [2], the GI50 lay in the range of 100 to 1000 nM. In data set [3] (CRBN/DDB1 2.5 nM, Cy5-Thalidomide 100 nM, 30 min, geometric mean, read-out: HTRF_Thali_Disp_DR_geo_IC50), the IC50 was 100 to 1000 nM. This compound yielded a DC50 in [4] of under 0.1 µM. The 50% growth inhibitory concentration (GI50) in [5] lay in the range of 100 to 1000 nM. In addition, the GI50 in [6] was under 100 nM. The 50% growth inhibitory concentration (GI50) in data set [7] is under 100 nM. Further, the GI50 in data set [8] was in the range of 100 to 1000 nM.
In data set [3], `CC(C)(C)C1CN(C(=O)Nc2ccc3c(c2)CN(C2CCC(=O)NC2=O)C3=O)c2ccccc21` (centres unmarked) [Compound 187, 3-(tert-butyl)-N-(2-(2,6-dioxopiperidin-3-yl)-1-oxoisoindolin-5-yl)indoline-1-carboxamide] registered an IC50 of 100 to 1000 nM. The DC50 in data set [9] was under 0.1 µM.
